Patent US7582618B2 (priority 2002, dated 2009)

What was measured:
Cytotoxicity (Table 10) [1] = type: cell-based; conditions: human, Daudi cells, EBV row
BVDV = test: Antiviral test (Table 8b); type: cell-based; conditions: Bovine viral diarrhea virus isolates and strains; table note: BHK for Bovine Viral Diarrhea Virus
Cytotoxicity (Table 10) [2] = conditions: human, A549 cells
YFV = test: microbe, parasite or virus in culture; type: cell-based; conditions: Yellow fever virus, read-out: YFV (Table 8b)
WNV (Vero) = test: microbe, parasite or virus in culture; type: cell-based; conditions: West Nile virus
CVB-4 = test: microbe, parasite or virus in culture; type: cell-based, Coxsackievirus B-4; conditions: Coxsackievirus, read-out: EC50 CVB-4
DENV-2 in BHK cells = test: Cell protection assay; type: cell-based; conditions: Dengue virus, DENV2, DENV-2, BHK
CVA-9 = test: microbe, parasite or virus in culture; type: cell-based, Coxsackievirus A-9; conditions: Coxsackievirus, read-out: EC50 CVA-9
[3] = In vitro stability in human plasma; conditions: human plasma or crude human cytidine/deoxycytidine deaminase preparation, 37° C.
[4] = Cytotoxicity (cell proliferation) assay; conditions: bovine, MDBK kidney cells
BVDV RNA = test: Intracellular BVDV RNA by Real Time RT-PCR in de novo-infected MDBK cells; type: cell-based; conditions: Bovine viral diarrhea virus isolates and strains, 18-hours post infection
West Nile virus = test: microbe, parasite or virus in culture; type: cell-based; conditions: read-out: composite EC50 range, West Nile virus
[5] = Cytotoxicity testing by NIH program; conditions: human and other mammalian
[6] = system: different strains of BVDV; test: BVDV cell protection, plaque reduction and yield reduction assays, summary over strains; type: cell-based; conditions: Bovine viral diarrhea virus isolates and strains, all three assays
[7] = system: BVDV I-NADL cp in MDBK cells; test: Yield reduction assay; type: cell-based; conditions: Bovine viral diarrhea virus isolates and strains
Method: For each compound the concentration to obtain a 6-log reduction in viral load was determined in duplicate 24-well plates by yield reduction assays. The assay was performed as described by Baginski, S. G.; Pevear, D. C.; Seipel, M.; Sun, S. C. C.; Benetatos, C. A.; Chunduru, S. K.; Rice, C. M. and M. S. Collett “Mechanism of action of a pestivirus antiviral compound” PNAS USA 2000, 97(14), 7981-7986, with minor modifications. Briefly, MDBK cells were seeded onto 24-well plates (2×10^5 cells per well) 24 hours before infection with BVDV (NADL strain) at a multiplicity of infection (MOI) of 0.1 PFU per cell. Serial dilutions of test compounds were added to cells in a final concentration of 0.5% DMSO in growth medium. Each dilution was tested in triplicate. After three days, cell cultures (cell monolayers and supernatants) were lysed by three freeze-thaw cycles, and virus yield was quantified by plaque assay. Briefly, MDBK cells were seeded onto 6-well plates (5×10^5 cells per well) 24 h before use. Cells were inoculated with 0.2 mL of test lysates for 1 hour, washed and overlaid with 0.5% agarose in growth medium. After 3 days, cell monolayers were fixed with 3.5% formaldehyde and stained with 1% crystal violet (w/v in 50% ethanol) to visualize plaques. The plaques were counted to determine the concentration to obtain a 6-log reduction in viral load.

[8] = Cytotoxicity (cell proliferation) assay; conditions: rat, H9c2 myocardial cells
[9] = Cytotoxicity (cell proliferation) assay; conditions: human
Cytotoxicity (Table 10) [10] = conditions: human, HeLa-Ohio cells
rig S15 mRNA = test: Cellular housekeeping mRNA control by RT-PCR in MDBK cells; type: cell-based, bovine; conditions: up to 125 μM
DENV-4 in BHK cells = test: Cell protection assay; type: cell-based; conditions: Dengue virus, DENV4, DENV-4, BHK
Cytotoxicity (Table 10) [11] = conditions: rhesus monkey, MA-104 cells
Cytotoxicity (Table 10) [12] = conditions: dog, MDCK cells
[13] = system: BVDV NADL cp in MDBK cells; test: Plaque reduction assay; type: cell-based; conditions: Bovine viral diarrhea virus isolates and strains
Method: For each compound the effective concentration was determined in duplicate 24-well plates by plaque reduction assays. Cell monolayers were infected with 100 PFU/well of virus. Then, serial dilutions of test compounds in MEM supplemented with 2% inactivated serum and 0.75% of methyl cellulose were added to the monolayers. Cultures were further incubated at 37° C. for 3 days, then fixed with 50% ethanol and 0.8% Crystal Violet, washed and air-dried. Then plaques were counted to determine the concentration to obtain 90% virus suppression.

[14] = Clinical pharmacokinetics of mCyd after oral val-mCyd; conditions: human, plasma, mCyd in plasma; for AUC(0-inf): AUC0-inf (Mean); for Cmax: Cmax (Mean); for Tmax: Tmax (Mean); for half-life: t1/2 (Mean)
[15] = Human bone marrow clonogenic assay
DENV 2 = test: Antiviral test (Table 8b); type: cell-based; conditions: Dengue virus
[16] = read-out: Antiviral Efficacy EC90
[17] = 50 mg, val-mCyd 50 mg PO, Day 1
[18] = 50 mg, val-mCyd 50 mg PO, Day 15
[19] = 100 mg, val-mCyd 100 mg PO, Day 1
[20] = 100 mg, val-mCyd 100 mg PO, Day 15

Compound `CC1(O)C(O)C(CO)OC1n1ccc(N)nc1=O` (centres unmarked) [mCyd, 4-Amino-1-(3,4-dihydroxy-5-hydroxymethyl-3-methyl-tetrahydro-furan-2-yl)-1H-pyrimidine-2-one] has a CC50 (Cytotoxicity (Table 10) [1]) greater than 50 µg/mL, an EC50 (BVDV) of 2.3 µM and a CC50 (Cytotoxicity (Table 10) [2]) greater than 200 µM. For the same compound, the EC50 (YFV) was 54 µM, the EC50 (WNV (Vero)) was 46 µM and the EC50 (CVB-4) was 13 µM. For the same compound, the EC50 (DENV-2 in BHK cells) was 95 µM, the EC50 (CVA-9) was 26 µM and the “in vitro stability / deamination to mUrd” value [3] was “remained essentially unchanged”. It also gave a CC50 at 4 days [4] of 36 µM, an EC50 (BVDV RNA; read-out: EC50, BVDV RNA levels) of 1.7 µM and an EC90 (BVDV RNA; read-out: EC90, BVDV RNA levels) of 2.3 µM. It also gave an EC50 (West Nile virus) of 46 to 97 µM, a CC50 [5] greater than 50 µM and an EC50 ([6]; read-out: range of EC50 values against BVDV) of 0.3 to 2.8 µM. It also gave an EC90 ([6]; read-out: range of EC90 values against BVDV) of 0.87 to 4.8 µM, an EC50 [7] of 0.68 µM and an EC90 [7, 16] of 1.73 µM. It also gave a CC50 at 4 days [8] greater than 250 µM, a CC50 [9] greater than 200 µM and a CC50 ([9]; HepG2 hepatoma cells on collagen-coated plates, CC50, HepG2 grown on collagen coated plates for 4 or 10 d) of no less than 200 µM. The CC50 at 4 days ([9]; HepG2 hepatoma cells, CC50, HepG2, rapid cell division) was 161 µM, the CC50 (Cytotoxicity (Table 10) [10]) was no less than 20 µg/mL and the “effect on level of rig S15 cellular mRNA control” value (rig S15 mRNA) was “No effect”. For the same compound, the EC50 (DENV-4 in BHK cells) was 59 µM, the CC50 (Cytotoxicity (Table 10) [11]) was 200 µM and the CC50 (Cytotoxicity (Table 10) [11]; CC50, MA-104, Parainfluenza type 3 row) was greater than 200 µM. For the same compound, the CC50 (Cytotoxicity (Table 10) [12]; Influenza A/H1N1 row) was greater than 200 µM, the CC50 (Cytotoxicity (Table 10) [12]; Influenza A/H3N2 row) was 45 to 65 µM and the CC50 (Cytotoxicity (Table 10) [12]; Influenza B row) was 55 to 140 µM. For the same compound, the EC50 [13] was 2.57 ± 0.35 µM, the EC90 [13, 16] was 4.63 ± 0.72 µM and the AUC(0-inf) [14, 17] was 3120 ng·h/mL. It also gave an AUC(0-inf) [14, 18] of 3170 ng·h/mL, a Cmax [14, 17] of 428 ng/mL and a Cmax [14, 18] of 363 ng/mL. For the same compound, the Tmax [14, 17] was 2.5 h, the Tmax [14, 18] was 2.2 h and the half-life [14, 17] was 4.1 h. For the same compound, the half-life [14, 18] was 4.6 h, the AUC(0-inf) [14, 19] was 6900 ng·h/mL and the AUC(0-inf) [14, 20] was 7670 ng·h/mL. For the same compound, the Cmax [14, 19] was 982 ng/mL, the Cmax [14, 20] was 1050 ng/mL and the Tmax [14, 19] was 2.6 h. The Tmax [14, 20] was 2 h, the half-life [14, 19] was 4.4 h and the half-life [14, 20] was 4.2 h. The CC50 [15] was 13.9 ± 3.2 µM and the EC50 (DENV 2) was 95 µM.
